The supplement of paper PMC10307832

Tests used:
Assay in all cases: relative viability (nuclei count vs DMSO), 5 days (fraction); higher = more cells survive
[1] = compound: CC(C)N(CCCNC(=O)Nc1ccc(C(C)(C)C)cc1)C[C@H]1O[C@@H](n2ccc3c(N)ncnc32)[C@H](O)[C@@H]1O + CS(=O)(=O)CCNCc1ccc(-c2ccc3ncnc(Nc4ccc(OCc5cccc(F)c5)c(Cl)c4)c3c2)o1 [Lapatinib] (partner 2 µM)
Summary of the method: (§1)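 A single step with final 0.05% Triton X-100, 1% formaldehyde and 1 ug/ml Hoechst fixed the cells and stained nuclei 5 days after treatment. Lung cancer cell lines in 1536-well plates had been treated by pin tool the day after seeding with one drug alone or a fixed anchor-drug dose plus five library-drug doses (not always all listed) in √10 steps, and nuclei were counted on 4× images. Relative viability is the ratio of nuclei in treated wells to nuclei in vehicle wells, taken as the median of duplicate plates.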

[2] = compound: CC(C)=CC[C@@H](O)C1=CC(=O)c2c(O)ccc(O)c2C1=O [Shikonin] + O=C(CCCCCCC(=O)Nc1ccccc1)NO [Vorinostat] (partner 1 µM)
Summary of the method: as §1

[3] = compound: CC(C)N(CCCNC(=O)Nc1ccc(C(C)(C)C)cc1)C[C@H]1O[C@@H](n2ccc3c(N)ncnc32)[C@H](O)[C@@H]1O + O=C(CCCCCCC(=O)Nc1ccccc1)NO [Vorinostat] (partner 1 µM)
Summary of the method: as §1

[4] = compound: CC(C)=CC[C@@H](O)C1=CC(=O)c2c(O)ccc(O)c2C1=O [Shikonin] + N=C(N)NC(=N)NCCc1ccccc1 [Phenformin] (partner 250 µM)
Summary of the method: as §1

EPLC-272H
relative viability ([1]; first compound 0.08 µM): 1.05 | relative viability ([1]; first compound 0.253 µM): 0.81 | relative viability ([1]; first compound 0.8 µM): 0.823 | relative viability ([1]; first compound 2.53 µM): 0.981 | relative viability ([1]; first compound 8 µM): 1.11 | relative viability ([2]; first compound 0.01 µM): 0.378 | relative viability ([2]; first compound 0.1 µM): 0.353 | relative viability ([2]; first compound 0.3162 µM): 0.536 | relative viability ([2]; first compound 1 µM): 0.377 | relative viability ([3]; first compound 0.08 µM): 0.404 | relative viability ([3]; first compound 0.253 µM): 0.439 | relative viability ([3]; first compound 0.8 µM): 0.664 | relative viability ([3]; first compound 2.53 µM): 0.4 | relative viability ([3]; first compound 8 µM): 0.708 | relative viability ([4]; first compound 0.01 µM): 0.282 | relative viability ([4]; first compound 0.1 µM): 0.309 | relative viability ([4]; first compound 0.3162 µM): 0.255 | relative viability ([4]; first compound 1 µM): 0.298
